From ChEMBL document CHEMBL1151543, “Application of the trimethyl lock1 to Ganciclovir, a pro-prodrug with increased oral bioavailability” (Bioorg Med Chem Lett, 1996)

Assay: Oral bioavailability in rat
Format: ADME, organism-based
Conditions: in vivo

| bioavailability | Compound |
| --- | --- |
| 0% | Cc1cc(C)c(C(C)(C)CC(=O)OCC(CO)OCn2cnc3c(O)nc(N)nc32)c(OCc2ccccc2)c1 (stereo not drawn) |
| 15.6% | CC(=O)Oc1cc(C)cc(C)c1C(C)(C)CC(=O)OCC(CO)OCn1cnc2c(O)nc(N)nc21 (stereo not drawn) |
| 3.6% | Nc1nc(O)c2ncn(COC(CO)CO)c2n1 [GANCICLOVIR] |
